From article PMC11270734 (ACS Omega, 2024)

How the values were obtained:
[1] = test system: chloroquine-sensitive P. falciparum (3D7 strain); format: cell-based; conditions: Plasmodium falciparum, 3D7, 48 h, read-out: MEAN IC50 ± SE
Cytotoxicity, MTT assay = format: cell-based; conditions: human, HEK-293 cells

## O=C(c1ccccc1)N1CCC2(CC1)OOC1(CCCCC1)OO2 [3b]
[1]
  IC50: 17.9 ± 1.96 nM
Cytotoxicity, MTT assay
  CC50 at 72 h: > 100 µg/mL

## O=C(c1ccccc1)N1CCC2(CC1)OOC1(CCCCCC1)OO2 [3c]
[1]
  IC50: 21.9 ± 1.79 nM
Cytotoxicity, MTT assay
  CC50 at 72 h: > 100 µg/mL

## O=C(c1ccccc1)N1CCC2(CC1)OOC1(OO2)C2CC3CC(C2)CC1C3 [3d]
[1]
  IC50: 7.28 ± 0.57 nM
Cytotoxicity, MTT assay
  CC50 at 72 h: > 100 µg/mL

## CC1(C)OOC2(CCN(C(=O)c3ccccc3)CC2)OO1 [3e]
[1]
  IC50: 29.9 ± 1.28 nM
Cytotoxicity, MTT assay
  CC50 at 72 h: > 100 µg/mL

## CCC1(C)OOC2(CCN(C(=O)c3ccccc3)CC2)OO1 [3f]
[1]
  IC50: 42.5 ± 3.04 nM
Cytotoxicity, MTT assay
  CC50 at 72 h: > 100 µg/mL

## CCCC1(C)OOC2(CCN(C(=O)c3ccccc3)CC2)OO1 [3g]
[1]
  IC50: 43.4 ± 2.38 nM
Cytotoxicity, MTT assay
  CC50 at 72 h: > 100 µg/mL

## CC(C)C1(C)OOC2(CCN(C(=O)c3ccccc3)CC2)OO1 [3h]
[1]
  IC50: 41.2 ± 2.33 nM
Cytotoxicity, MTT assay
  CC50 at 72 h: > 100 µg/mL

## CCCCC1(C)OOC2(CCN(C(=O)c3ccccc3)CC2)OO1 [3j]
[1]
  IC50: 17.5 ± 1.24 nM
Cytotoxicity, MTT assay
  CC50 at 72 h: > 100 µg/mL

## CC(C)CC1(C)OOC2(CCN(C(=O)c3ccccc3)CC2)OO1 [3k]
[1]
  IC50: 18.9 ± 2.12 nM
Cytotoxicity, MTT assay
  CC50 at 72 h: > 100 µg/mL

## CCCCCC1(C)OOC2(CCN(C(=O)c3ccccc3)CC2)OO1 [3l]
[1]
  IC50: 16.7 ± 1.93 nM
Cytotoxicity, MTT assay
  CC50 at 72 h: > 100 µg/mL

## CCC1(CC)OOC2(CCN(C(=O)c3ccccc3)CC2)OO1 [3m]
[1]
  IC50: 17.5 ± 1.59 nM
Cytotoxicity, MTT assay
  CC50 at 72 h: > 100 µg/mL

## CCCC1(CCC)OOC2(CCN(C(=O)c3ccccc3)CC2)OO1 [3o]
[1]
  IC50: 17.3 ± 1.78 nM
Cytotoxicity, MTT assay
  CC50 at 72 h: > 100 µg/mL

## CC1(c2ccccc2)OOC2(CCN(C(=O)c3ccccc3)CC2)OO1 [3p]
[1]
  IC50: 16.3 ± 0.93 nM
Cytotoxicity, MTT assay
  CC50 at 72 h: > 100 µg/mL

## CC1(c2ccc(Cl)cc2)OOC2(CCN(C(=O)c3ccccc3)CC2)OO1 [3q]
[1]
  IC50: 11.8 ± 0.8 nM
Cytotoxicity, MTT assay
  CC50 at 72 h: > 100 µg/mL

## CC1(c2ccc(C#N)cc2)OOC2(CCN(C(=O)c3ccccc3)CC2)OO1 [3r]
[1]
  IC50: 15.7 ± 0.78 nM
Cytotoxicity, MTT assay
  CC50 at 72 h: > 100 µg/mL

## O=Cc1ccc(C(=O)N2CCC3(CC2)OOC2(OO3)C3CC4CC(C3)CC2C4)cc1 [3u]
[1]
  IC50: 6.35 ± 0.55 nM
Cytotoxicity, MTT assay
  CC50 at 72 h: > 100 µg/mL

## C[C@@H]1CC[C@H]2[C@@H](C)C(=O)O[C@@H]3O[C@@]4(C)CC[C@@H]1[C@]32OO4 [artemisinin, reference compound]
Cytotoxicity, MTT assay
  CC50 at 72 h: > 100 µg/mL
